The conditions of data set [1]: 101 kPa, Liquid; for mass density: Vibrating tube method.
The nature of data set [2]: xn = mol fraction of the nth substance listed. The following applies: 101 kPa, Liquid, x1 = 1; for mass density: Vibrating tube method.

Numbers after ± are expanded uncertainties.

Drawing on the NIST ThermoML archive (doi:10.1021/je800348s), this text covers viscosity and mass density for five compounds.

What is called viscosity is the internal friction of a fluid under shear. The term mass density denotes the mass of a sample divided by its volume. As to `CCCCCCCCCC` [decane], the viscosity in data set [1] (293.15 K) was found to be 0.9491 ± 0.024 mPa·s; in data set [1] (298.15 K) it was 0.8434 ± 0.022 mPa·s; in data set [1] (303.15 K) it was 0.8172 ± 0.021 mPa·s; in data set [1] (313.15 K) it was 0.7851 ± 0.02 mPa·s. Further, the mass density came to 730 ± 8 kg/m3 in data set [1] (293.15 K), 726.4 ± 8 kg/m3 in data set [1] (298.15 K), 722.5 ± 8 kg/m3 in data set [1] (303.15 K) and 715.4 ± 8 kg/m3 in data set [1] (313.15 K).
Take `CCCCCCCCCC` [decane] + C1C[C@@H]2[C@H]3CC[C@H](C3)[C@@H]2C1: the mass density turned out to be 730 ± 8 kg/m3 in data set [2] (293.15 K), 726.4 ± 8 kg/m3 in data set [2] (298.15 K), 722.5 ± 8 kg/m3 in data set [2] (303.15 K) and 715.4 ± 8 kg/m3 in data set [2] (313.15 K). For the same compound, the viscosity in data set [2] (293.15 K) is on record as 0.9491 ± 0.024 mPa·s; in data set [2] (298.15 K), 0.8434 ± 0.022 mPa·s; in data set [2] (303.15 K), 0.8172 ± 0.021 mPa·s; in data set [2] (313.15 K) it was 0.7851 ± 0.02 mPa·s.
As for `C1C[C@@H]2[C@H]3CC[C@H](C3)[C@@H]2C1` [exo-tetrahydrodicyclopentadiene], the viscosity in data set [1] (293.15 K) was found to be 3.064 ± 0.077 mPa·s; in data set [1] (298.15 K) it was 2.74 ± 0.069 mPa·s; in data set [1] (303.15 K), 2.514 ± 0.063 mPa·s; in data set [1] (313.15 K), 2.27 ± 0.057 mPa·s. For the same compound, the mass density in data set [1] (293.15 K) turned out to be 935.2 ± 8 kg/m3; in data set [1] (298.15 K) it was 931.4 ± 8 kg/m3; in data set [1] (303.15 K), 927.7 ± 8 kg/m3; in data set [1] (313.15 K) it was 922.2 ± 8 kg/m3.
For the compound `CCCCCCCC` [octane], the viscosity in data set [1] (293.15 K) was 0.5439 ± 0.015 mPa·s; in data set [1] (298.15 K), 0.5177 ± 0.015 mPa·s; in data set [1] (303.15 K) it was 0.4795 ± 0.014 mPa·s; in data set [1] (313.15 K), 0.4358 ± 0.013 mPa·s. Further, the mass density in data set [1] (293.15 K) worked out at 702.5 ± 8 kg/m3; in data set [1] (298.15 K), 698.5 ± 8 kg/m3; in data set [1] (303.15 K) it was 694.5 ± 8 kg/m3; in data set [1] (313.15 K) it was 686.3 ± 8 kg/m3.
On to `CCCCCCCC` [octane] + C1C[C@@H]2[C@H]3CC[C@H](C3)[C@@H]2C1, for which the mass density was found to be 702.5 ± 8 kg/m3 in data set [2] (293.15 K), 698.5 ± 8 kg/m3 in data set [2] (298.15 K), 694.5 ± 8 kg/m3 in data set [2] (303.15 K) and 686.3 ± 8 kg/m3 in data set [2] (313.15 K). Further, the viscosity amounted to 0.5439 ± 0.015 mPa·s in data set [2] (293.15 K), 0.5177 ± 0.015 mPa·s in data set [2] (298.15 K), 0.4795 ± 0.014 mPa·s in data set [2] (303.15 K) and 0.4358 ± 0.013 mPa·s in data set [2] (313.15 K).
